From article PMC6199744, “Development of Chemical Proteomics for the Folateome and Analysis of the Kinetoplastid Folateome” (ACS Infectious Diseases, 2018) come the findings set out here.

Each structure is given as a SMILES string. Like-named read-outs stand apart in the source and are kept apart here.

What all share (format): binding
The target of test [1] is T1, HeLa cell extract proteins (Homo sapiens, UniProt Q9H974).
T1 construct: endogenous in cells; host or cells: HeLa cell extract

The target in test [2] is T2, HeLa cell extract proteins (Homo sapiens, UniProt P26599).
T2 construct: endogenous in cells; host or cells: HeLa cell extract
T2 sequence (P26599 whole entry): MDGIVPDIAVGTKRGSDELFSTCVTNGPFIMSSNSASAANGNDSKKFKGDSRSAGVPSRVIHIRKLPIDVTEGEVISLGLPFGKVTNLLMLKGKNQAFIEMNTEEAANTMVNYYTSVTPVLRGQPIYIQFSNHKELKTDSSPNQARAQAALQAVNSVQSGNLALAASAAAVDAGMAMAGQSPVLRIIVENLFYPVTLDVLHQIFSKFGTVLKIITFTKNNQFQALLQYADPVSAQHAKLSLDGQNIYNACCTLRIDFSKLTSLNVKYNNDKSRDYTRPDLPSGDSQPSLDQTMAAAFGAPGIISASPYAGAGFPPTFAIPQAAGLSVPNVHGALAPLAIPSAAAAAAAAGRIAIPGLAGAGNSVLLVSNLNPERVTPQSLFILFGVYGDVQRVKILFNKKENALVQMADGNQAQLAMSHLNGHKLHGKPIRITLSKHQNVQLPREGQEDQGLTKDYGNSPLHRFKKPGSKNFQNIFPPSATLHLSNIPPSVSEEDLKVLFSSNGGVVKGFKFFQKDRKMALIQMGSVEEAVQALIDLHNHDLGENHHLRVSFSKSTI

Test [3] deals with T3, HeLa cell extract proteins (Homo sapiens, UniProt Q9UBN7).
T3 construct: endogenous in cells; host or cells: HeLa cell extract
T3 sequence (Q9UBN7 1-1215): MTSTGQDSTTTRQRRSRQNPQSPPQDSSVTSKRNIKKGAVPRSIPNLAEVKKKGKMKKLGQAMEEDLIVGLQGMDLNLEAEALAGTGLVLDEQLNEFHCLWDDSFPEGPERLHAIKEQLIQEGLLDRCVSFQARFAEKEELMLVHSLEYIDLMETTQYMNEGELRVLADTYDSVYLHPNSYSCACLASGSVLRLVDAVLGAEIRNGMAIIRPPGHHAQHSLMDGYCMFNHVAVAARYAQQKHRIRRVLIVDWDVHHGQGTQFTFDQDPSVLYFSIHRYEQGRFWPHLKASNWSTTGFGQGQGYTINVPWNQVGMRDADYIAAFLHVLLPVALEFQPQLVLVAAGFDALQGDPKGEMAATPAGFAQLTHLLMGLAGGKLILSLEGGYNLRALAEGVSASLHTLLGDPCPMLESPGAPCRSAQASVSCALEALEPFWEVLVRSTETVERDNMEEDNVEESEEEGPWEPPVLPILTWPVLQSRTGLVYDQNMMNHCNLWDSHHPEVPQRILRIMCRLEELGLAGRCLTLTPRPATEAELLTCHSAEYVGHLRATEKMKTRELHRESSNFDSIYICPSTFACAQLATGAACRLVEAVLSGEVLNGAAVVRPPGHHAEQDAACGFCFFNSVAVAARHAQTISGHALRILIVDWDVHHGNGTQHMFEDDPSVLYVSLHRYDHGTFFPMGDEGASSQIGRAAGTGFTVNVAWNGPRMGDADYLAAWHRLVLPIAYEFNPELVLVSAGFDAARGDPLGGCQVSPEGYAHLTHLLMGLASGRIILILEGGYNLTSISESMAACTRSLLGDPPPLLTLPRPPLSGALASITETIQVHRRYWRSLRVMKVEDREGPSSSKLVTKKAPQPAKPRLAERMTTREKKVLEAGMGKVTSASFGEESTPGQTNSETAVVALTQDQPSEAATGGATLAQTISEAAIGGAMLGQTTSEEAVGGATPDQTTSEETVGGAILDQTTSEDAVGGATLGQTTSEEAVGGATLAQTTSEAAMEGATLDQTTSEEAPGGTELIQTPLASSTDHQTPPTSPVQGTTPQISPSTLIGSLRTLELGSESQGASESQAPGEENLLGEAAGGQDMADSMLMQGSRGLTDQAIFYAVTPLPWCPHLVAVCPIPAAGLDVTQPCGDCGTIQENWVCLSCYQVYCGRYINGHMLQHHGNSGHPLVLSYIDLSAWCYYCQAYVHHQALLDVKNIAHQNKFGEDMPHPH

The target of test [4] is T4, HeLa cell extract proteins (Homo sapiens, UniProt P20674).
T4 construct: endogenous in cells; host or cells: HeLa cell extract
T4 sequence (P20674 42-150): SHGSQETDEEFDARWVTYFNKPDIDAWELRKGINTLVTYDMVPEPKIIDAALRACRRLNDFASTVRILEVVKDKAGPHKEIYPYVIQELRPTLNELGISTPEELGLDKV

For test [5], the target named is T5, HeLa cell extract proteins (Homo sapiens, UniProt Q8WWC4).
T5 construct: endogenous in cells; host or cells: HeLa cell extract
T5 sequence (Q8WWC4 97-291): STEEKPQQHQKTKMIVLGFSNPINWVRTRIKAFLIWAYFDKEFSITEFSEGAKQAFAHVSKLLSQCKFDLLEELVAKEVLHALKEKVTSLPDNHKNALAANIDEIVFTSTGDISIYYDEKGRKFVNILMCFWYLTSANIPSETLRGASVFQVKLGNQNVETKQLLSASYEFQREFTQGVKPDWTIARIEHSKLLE

In test [6] the target is T6, HeLa cell extract proteins (Homo sapiens, UniProt P35270).
T6 construct: endogenous in cells; host or cells: HeLa cell extract
T6 sequence (P35270 whole entry): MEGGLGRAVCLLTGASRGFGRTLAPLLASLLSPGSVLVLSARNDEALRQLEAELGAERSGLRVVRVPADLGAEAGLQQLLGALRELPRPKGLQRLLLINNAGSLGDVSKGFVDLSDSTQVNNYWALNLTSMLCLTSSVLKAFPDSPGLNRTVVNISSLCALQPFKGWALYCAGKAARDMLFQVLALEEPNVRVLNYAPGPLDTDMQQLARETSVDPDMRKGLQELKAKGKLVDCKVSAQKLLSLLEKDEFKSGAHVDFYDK

Test [7] addresses T7, HeLa cell extract proteins (Homo sapiens, UniProt P61106).
T7 construct: endogenous in cells; host or cells: HeLa cell extract

The target in test [8] is T8, HeLa cell extract proteins (Homo sapiens, UniProt O15427).
T8 construct: endogenous in cells; host or cells: HeLa cell extract
T8 sequence (O15427 1-465): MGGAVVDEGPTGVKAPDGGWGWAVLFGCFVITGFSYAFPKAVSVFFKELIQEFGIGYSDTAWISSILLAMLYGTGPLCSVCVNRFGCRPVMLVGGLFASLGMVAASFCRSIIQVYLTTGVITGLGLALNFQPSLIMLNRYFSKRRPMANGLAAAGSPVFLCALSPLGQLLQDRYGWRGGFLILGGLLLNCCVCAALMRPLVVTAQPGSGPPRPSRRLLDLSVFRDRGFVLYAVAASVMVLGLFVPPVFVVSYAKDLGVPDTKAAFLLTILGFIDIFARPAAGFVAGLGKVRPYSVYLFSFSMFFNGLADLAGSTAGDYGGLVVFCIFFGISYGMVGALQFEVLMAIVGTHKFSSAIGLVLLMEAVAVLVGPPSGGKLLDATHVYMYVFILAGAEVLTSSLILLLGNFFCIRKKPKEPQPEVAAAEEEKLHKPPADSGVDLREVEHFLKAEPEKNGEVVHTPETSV

Test [9] concerns the target T9, HeLa cell extract proteins (Homo sapiens, UniProt P55010).
T9 construct: endogenous in cells; host or cells: HeLa cell extract

Test [10] deals with T10, HeLa cell extract proteins (Homo sapiens, UniProt Q99613).
T10 construct: endogenous in cells; host or cells: HeLa cell extract
T10 sequence (Q99613 whole entry): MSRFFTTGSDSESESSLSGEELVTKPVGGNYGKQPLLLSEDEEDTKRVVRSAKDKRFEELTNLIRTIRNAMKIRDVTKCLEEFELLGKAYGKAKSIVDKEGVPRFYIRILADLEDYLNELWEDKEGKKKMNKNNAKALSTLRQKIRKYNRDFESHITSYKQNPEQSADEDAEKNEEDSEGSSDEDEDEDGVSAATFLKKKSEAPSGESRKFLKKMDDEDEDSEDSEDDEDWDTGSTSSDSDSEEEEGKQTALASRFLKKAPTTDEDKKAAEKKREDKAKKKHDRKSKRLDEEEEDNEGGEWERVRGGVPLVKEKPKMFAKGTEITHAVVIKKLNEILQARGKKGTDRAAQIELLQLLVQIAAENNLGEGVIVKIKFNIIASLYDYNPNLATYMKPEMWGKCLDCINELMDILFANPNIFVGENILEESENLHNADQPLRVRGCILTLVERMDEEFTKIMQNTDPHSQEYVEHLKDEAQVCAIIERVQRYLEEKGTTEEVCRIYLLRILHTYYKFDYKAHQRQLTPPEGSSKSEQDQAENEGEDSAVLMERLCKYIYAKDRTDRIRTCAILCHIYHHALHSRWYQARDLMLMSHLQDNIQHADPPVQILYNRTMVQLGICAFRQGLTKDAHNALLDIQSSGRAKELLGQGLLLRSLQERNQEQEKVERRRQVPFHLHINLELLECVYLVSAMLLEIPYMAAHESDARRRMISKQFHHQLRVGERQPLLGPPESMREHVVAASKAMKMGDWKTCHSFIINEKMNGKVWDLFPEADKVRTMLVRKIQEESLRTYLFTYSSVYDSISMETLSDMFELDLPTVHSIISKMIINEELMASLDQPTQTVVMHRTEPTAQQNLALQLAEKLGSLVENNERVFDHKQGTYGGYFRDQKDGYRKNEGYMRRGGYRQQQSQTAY

Test [11] has as its target T11, HeLa cell extract proteins (Homo sapiens, UniProt P09972).
T11 construct: endogenous in cells; host or cells: HeLa cell extract
T11 sequence (P09972 1-364): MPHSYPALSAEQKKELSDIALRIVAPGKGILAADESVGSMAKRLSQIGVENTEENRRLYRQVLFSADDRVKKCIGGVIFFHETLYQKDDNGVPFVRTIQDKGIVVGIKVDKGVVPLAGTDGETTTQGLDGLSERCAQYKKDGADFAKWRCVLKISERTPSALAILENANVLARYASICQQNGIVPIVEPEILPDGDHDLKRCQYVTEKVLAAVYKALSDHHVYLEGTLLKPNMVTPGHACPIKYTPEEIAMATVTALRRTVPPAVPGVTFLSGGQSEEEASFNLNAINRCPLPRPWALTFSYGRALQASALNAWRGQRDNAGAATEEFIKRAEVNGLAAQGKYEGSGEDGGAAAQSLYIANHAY

[12] abbreviates: HeLa, protein ALDOC (FRUCTOSE-BI[…] C.).

T7 sequence (P61106 whole entry): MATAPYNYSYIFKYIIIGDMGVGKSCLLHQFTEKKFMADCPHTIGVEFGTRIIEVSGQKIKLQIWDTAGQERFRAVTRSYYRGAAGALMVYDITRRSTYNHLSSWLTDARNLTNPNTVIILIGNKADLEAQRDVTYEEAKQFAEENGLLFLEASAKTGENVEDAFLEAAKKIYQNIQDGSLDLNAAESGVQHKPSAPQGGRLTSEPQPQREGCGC
T1 sequence (Q9H974 whole entry): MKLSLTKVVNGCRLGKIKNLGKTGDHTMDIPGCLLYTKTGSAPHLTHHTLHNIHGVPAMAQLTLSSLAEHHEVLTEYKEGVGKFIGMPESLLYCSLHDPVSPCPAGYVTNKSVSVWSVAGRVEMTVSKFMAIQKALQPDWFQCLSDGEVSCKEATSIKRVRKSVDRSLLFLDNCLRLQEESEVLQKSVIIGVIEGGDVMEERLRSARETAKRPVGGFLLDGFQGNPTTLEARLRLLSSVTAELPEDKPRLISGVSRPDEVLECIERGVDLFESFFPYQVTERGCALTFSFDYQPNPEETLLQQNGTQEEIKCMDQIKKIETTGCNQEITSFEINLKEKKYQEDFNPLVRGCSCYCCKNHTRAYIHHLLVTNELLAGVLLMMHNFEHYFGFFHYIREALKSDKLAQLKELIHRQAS
T9 sequence (P55010 whole entry): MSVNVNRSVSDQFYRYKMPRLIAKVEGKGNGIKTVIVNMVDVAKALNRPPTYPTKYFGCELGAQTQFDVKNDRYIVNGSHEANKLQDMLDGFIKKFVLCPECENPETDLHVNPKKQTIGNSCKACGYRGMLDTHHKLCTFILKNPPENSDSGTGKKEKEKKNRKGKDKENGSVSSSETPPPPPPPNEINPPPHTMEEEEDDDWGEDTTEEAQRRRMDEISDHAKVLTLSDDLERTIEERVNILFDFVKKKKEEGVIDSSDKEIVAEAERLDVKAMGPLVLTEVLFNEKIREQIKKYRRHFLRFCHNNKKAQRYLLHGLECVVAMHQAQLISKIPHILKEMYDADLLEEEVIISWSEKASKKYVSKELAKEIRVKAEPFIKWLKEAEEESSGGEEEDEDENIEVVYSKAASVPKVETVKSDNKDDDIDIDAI

With `CCCCCCOc1cccc(Cc2cnc(N)nc2N)c1` [compound 2], the “fold changes relative to vehicle control” value in test [1] (HeLa, protein QTRTD1) is 0.93; in test [2] (protein PTBP1, HeLa), 1.55; in [3] (captured protein HDAC6, HeLa), 1.1; in test [4] (captured protein COX5A, HeLa), 0.91; in test [5] (HeLa, protein C2ORF47) it was 1.06; in test [6] (protein SPR, HeLa) it was 1.21. For the same molecule, the “fold changes relative to vehicle control” value in test [7] (captured protein RAB14, HeLa) was 1.22; in test [8] (HeLa, protein SLC16A3), 0.94; in [9] (HeLa, protein EIF5 (EUKARYOTIC TRANSLATION INITIATION FACTOR 5.)), 2.16 fold; in test [10] (protein EIF3C, HeLa) it was 1.19; in [11] (HeLa, protein ALDOC (FRUCTOSE-BISPHOSPHATE ALDOLASE C.)) it was 2.35 fold.
`NCCOCCOCC(=O)Nc1nc2ncc(CNc3ccc(C(=O)NC(CCC(=O)O)C(=O)O)cc3)nc2c(=O)[nH]1` (centres unmarked) [compound 6]: the “fold changes relative to vehicle control” value in test [1] (protein QTRTD1, HeLa) amounted to 0.33; in [2] (HeLa, protein PTBP1), 1.03; in test [3] (HeLa, captured protein HDAC6), 1.06; in test [4] (HeLa, captured protein COX5A), 1.87; in test [5] (protein C2ORF47, HeLa), 0.99; in test [6] (HeLa, protein SPR), 0.92. Moreover, the “fold changes relative to vehicle control” value is reported as 0.97 in [7] (HeLa, protein RAB14); 0.85 in test [8] (HeLa, protein SLC16A3); 1.64 in test [9] (HeLa, captured protein EIF5); 1.02 in test [10] (protein EIF3C, HeLa); 1.06 in test [11] (HeLa, protein ALDOC).
Regarding `CCCCCCOc1ccc(Cc2cnc(N)nc2N)cc1` [compound 1], the “fold changes relative to vehicle control” value was 0.46 in [1] (HeLa, protein QTRTD1); 0.97 in test [2] (protein PTBP1, HeLa); 0.95 in test [3] (captured protein HDAC6, HeLa); 0.98 in [4] (captured protein COX5A, HeLa); 1.1 in [5] (HeLa, protein C2ORF47); 1.03 in test [6] (protein SPR, HeLa). For the same molecule, the “fold changes relative to vehicle control” value is listed as 0.89 in test [7] (captured protein RAB14, HeLa); 0.83 in test [8] (HeLa, protein SLC16A3); 1.24 fold in test [9]; 1.1 in test [10] (protein EIF3C, HeLa); 1.49 fold in [11] (setting [12]).
As for `Nc1nc2c(c(=O)[nH]1)N(C=O)C(CNc1ccc(C(=O)N[C@@H](CCC(=O)O)C(=O)O)cc1)CN2` (some centres unmarked) [LEU, leucovorin], the “fold changes relative to vehicle control” value worked out at 0.93 in [1] (protein QTRTD1, HeLa); 0.98 in test [2] (HeLa, protein PTBP1); 1.02 in test [3] (HeLa, captured protein HDAC6); 1.23 in [4] (HeLa, captured protein COX5A); 0.93 in test [5] (protein C2ORF47, HeLa); 0.92 in test [6] (HeLa, protein SPR). Moreover, the “fold changes relative to vehicle control” value in test [7] (HeLa, protein RAB14) was found to be 0.95; in test [8] (HeLa, protein SLC16A3) it was 0.96; in test [9] (HeLa, captured protein EIF5), 0.98; in test [10] (protein EIF3C, HeLa) it was 1.02; in test [11] (HeLa, protein ALDOC) it was 0.9.
As for `NCCCNc1ccc(C(=O)NC(CCC(=O)O)C(=O)O)cc1` (centres unmarked) [compound 7], the “fold changes relative to vehicle control” value in test [1] (protein QTRTD1, HeLa) is reported as 0.99; in test [2] (HeLa, protein PTBP1) it was 1.05; in test [3] (HeLa, captured protein HDAC6), 1.02; in [4] (HeLa, captured protein COX5A), 1.63; in test [5] (protein C2ORF47, HeLa) it was 1.06; in test [6] (HeLa, protein SPR), 0.95. The “fold changes relative to vehicle control” value in [7] (HeLa, protein RAB14) turned out to be 0.86; in test [8] (HeLa, protein SLC16A3), 0.94; in test [9] (HeLa, captured protein EIF5), 0.94; in test [10] (protein EIF3C, HeLa) it was 0.88; in test [11] (HeLa, protein ALDOC), 1.12.
For `Nc1nc2[nH]cc(CCc3ccc(C(=O)N[C@@H](CCC(=O)O)C(=O)O)cc3)c2c(=O)[nH]1` [PTX, pemetrexed], the “fold changes relative to vehicle control” value came to 0.86 in test [1]; 0.95 in test [2]; 0.98 in test [3]; 1.5 in [4]; 0.92 in [5]; 0.86 in [6]. For the same molecule, the “fold changes relative to vehicle control” value came to 0.95 in test [7]; 0.85 in [8]; 1.05 in test [9]; 0.94 in test [10]; 1.04 in test [11].
With `Nc1nc2cccc(-c3ccccc3)c2n1Cc1ccc(Cl)c(Cl)c1` [compound 3], the “fold changes relative to vehicle control” value in [1] (HeLa, protein QTRTD1) came out at 0.99; in test [2] (protein PTBP1, HeLa), 1.08; in test [3] (captured protein HDAC6, HeLa) it was 1.14; in test [4] (captured protein COX5A, HeLa) it was 1.18; in [5] (HeLa, protein C2ORF47) it was 1.11; in test [6] (protein SPR, HeLa) it was 1.12. Further, the “fold changes relative to vehicle control” value stood at 0.82 in test [7] (captured protein RAB14, HeLa); 0.94 in test [8] (HeLa, protein SLC16A3); 0.91 fold in test [9]; 1.08 in test [10] (protein EIF3C, HeLa); 1.23 fold in test [11] (setting [12]).
